Legend:
[1] = tested on: cytokines induced in mice by LPS; assay: Mouse LPS cytokine model, Example 6C Study 1, omega fatty acids with or without 0.5 mg/kg 1:1 CBD:CBDA; assay type: in vivo; conditions: 0.5 mg/kg (0.01 mg per mouse)
Method: (§1) A series of experiments using a mouse LPS cytokine animal model were performed. In the mouse LPS cytokine animal model, mice were injected with LPS, which induced the immune response shortly after the mice were injected with one of the potential anti-inflammatory compounds under evaluation (the “test compound”). The efficacy of the test compound was evaluated based on its ability to reduce expression levels of inflammatory cytokines that were elevated due to the immune response. The test compounds included a cannabinoid, an omega fatty acid, and a cannabinoid-omega fatty acid composition.
(§2) The mice were intraperitoneally injected with 0.1 mL of the test compound. One hour later, the mice were intraperitoneally injected with 0.1 mL of LPS in phosphate buffered saline (PBS). Four hours later, a heart puncture was performed and the blood was allowed to clot to generate serum. 0.1 mL of the serum was diluted 1:2 with PBS and stored at −80° C. The serum was then sent to a laboratory where a mouse cytokine array/chemokine array 31-plex (MD31) analysis was performed that analyzed the expression levels of the 32 cytokines/chemokines listed in Table 9, above.
(§3) For each considered test compound, the ability of the test compound to suppress each inflammatory cytokine was calculated by determining the percent suppression.
(§4) In this study, the effects of combining 1:1 CBD:CBDA with anti-inflammatory omega unsaturated fatty acids using the mouse LPS cytokine animal model were examined.
32 female C57BL/6 mice that weighed approximately 20 g each were allowed to acclimate for one week with unlimited access to food and water. On the day of the study, the mice were weighed and split into eight groups of four mice each so that the average weight of each group was as close as possible to each other.
Because the purpose of this experiment was to evaluate the effectiveness of combining 1:1 CBD:CBDA and the anti-inflammatory omega fatty acids, only cytokines that could be suppressed by one of the anti-inflammatory agents used in this study were considered.

[2] = tested on: cytokines induced in mice by LPS; assay: Mouse LPS cytokine model, Example 6C Study 3, omega fatty acids with or without 0.25 mg/kg 1:1 CBD:CBDA; assay type: in vivo
Method: as §1, §2, §3, §4
40 female C57BL/6 mice that weighed approximately 20 g each were allowed to acclimate for one week with unlimited access to food and water. On the day of the study, the mice were weighed and split into ten groups of four mice each so that the average weight of each group was as close as possible to each other. […] (9) LPS plus 37.50 mg omega fatty acids (0.1 mL injection of 375.00 mg/mL omega fatty acids diluted in MCT oil, followed 1 hour later by a 0.1 mL injection of LPS in PBS); and (10) LPS plus 37.50 mg omega fatty acids/0.005 mg 1:1 CBD:CBDA (0.1 mL injection of 375.00 mg/mL omega fatty acids/0.05 mg/mL 1:1 CBD:CBDA diluted in MCT oil, followed 1 hour later by a 0.1 mL injection of LPS in PBS).
24 out of the 32 analyzed cytokines were induced two-fold by LPS. Because the purpose of this experiment was to evaluate the effectiveness of combining 1:1 CBD:CBDA and the anti-inflammatory omega fatty acids, only cytokines that could be suppressed by one of the anti-inflammatory agents used in this study were considered. 24 out of the 24 cytokines whose expression level was induced-two fold or greater by LPS met these criteria.

[3] = 0.01 mg dexamethasone in MCT oil

C[C@@H]1C[C@H]2[C@@H]3CCC4=CC(=O)C=C[C@]4(C)[C@@]3(F)[C@@H](O)C[C@]2(C)[C@@]1(O)C(=O)CO [Dexamethasone, dexamethasone]
AVERAGE SUPPRESSION [1]: 20.66% | IFNγ suppression [1]: −41.63% | IL-1β suppression [1]: 19.75% | IL-6 suppression [1]: 64.76% | IL-10 suppression [1]: 19.59% | IL-12 p70 suppression [1]: 10.64% | IL-12β p40 suppression [1]: 39.02% | IL-15 suppression [1]: 26.30% | IL-17 suppression [1]: 49.77% | IP-10 suppression [1]: 24.44% | KC suppression [1]: 40.63% | LIF suppression [1]: 29.55% | MCP-1 suppression [1]: 26.32% | MIG suppression [1]: 3.78% | MIP-1α suppression [1]: 26.86% | MIP-1β suppression [1]: 5.51% | MIP-2 suppression [1]: 34.16% | RANTES suppression [1]: −13.70% | TNF-α suppression [1]: 26.92% | Percent suppression of elevated cytokine levels, Eotaxin [2, 3]: 7.26% | Percent suppression of elevated cytokine levels, IFNγ [2, 3]: 44.52% | Percent suppression of elevated cytokine levels, IL-1β [2, 3]: 35.53% | Percent suppression of elevated cytokine levels, IL-2 [2, 3]: −9.46% | Percent suppression of elevated cytokine levels, IL-6 [2, 3]: 85.95% | Percent suppression of elevated cytokine levels, IL-7 [2, 3]: 96.66% | Percent suppression of elevated cytokine levels, IL-10 [2, 3]: 57.41% | Percent suppression of elevated cytokine levels, IL-12β p40 [2, 3]: 54.79% | Percent suppression of elevated cytokine levels, IL-12β p70 [2, 3]: −51.07% | Percent suppression of elevated cytokine levels, IL-13 [2, 3]: 11.39% | Percent suppression of elevated cytokine levels, IL-15 [2, 3]: −13.42% | Percent suppression of elevated cytokine levels, IL-17 [2, 3]: 63.75% | Percent suppression of elevated cytokine levels, IP-10 [2, 3]: 42.02% | Percent suppression of elevated cytokine levels, KC [2, 3]: 60.10% | Percent suppression of elevated cytokine levels, LIF [2, 3]: 47.18% | Percent suppression of elevated cytokine levels, MCP-1 [2, 3]: 57.29% | Percent suppression of elevated cytokine levels, MIG [2, 3]: −0.29% | Percent suppression of elevated cytokine levels, MIP-1α [2, 3]: 47.13% | Percent suppression of elevated cytokine levels, MIP-1β [2, 3]: 34.67% | Percent suppression of elevated cytokine levels, MIP-2 [2, 3]: 37.57% | Percent suppression of elevated cytokine levels, RANTES [2, 3]: 37.87% | Percent suppression of elevated cytokine levels, TNF-α [2, 3]: 51.43% | Percent suppression of elevated cytokine levels, VEGF [2, 3]: 75.98% | Percent suppression of elevated cytokine levels, AVERAGE SUPPRESSION ([2]; 0.01 mg dexamethasone in MCT oil, average of 24 cytokines): 37.59% | decrease in the cytokine expression levels (average) ([2]; 0.01 mg per mouse): 37.59%

Reference: US12678451B2, “Cannabinoid and omega fatty acid compositions and methods of using” (GreenWay Herbal Products, LLC, priority 2019, dated 2026)
